One test relates to Ba/F3 ROS1 D2033N. Kind of test: Antiproliferation assay. The format is cell-based. As to conditions: Mus musculus, BaF3; Ba/F3 cells, cell growth inhibition.
The next test has as its system Ba/F3 ROS1 G2032R-F2075V. Description: Antiproliferation assay. It counts as cell-based. As to conditions: Mus musculus, BaF3; Ba/F3 cells, cell growth inhibition.
The next test concerns Ba/F3 ROS1 L2026M. Description: Antiproliferation assay. As to conditions: Mus musculus, BaF3; Ba/F3 cells, cell growth inhibition. The format is cell-based.
The target of a further test is CLK1 (Homo sapiens, UniProt P49759). Description: Kinase assay. It counts as biochemical. The following applies: average of duplicate measurements.
Chain of CLK1 (P49759 whole entry): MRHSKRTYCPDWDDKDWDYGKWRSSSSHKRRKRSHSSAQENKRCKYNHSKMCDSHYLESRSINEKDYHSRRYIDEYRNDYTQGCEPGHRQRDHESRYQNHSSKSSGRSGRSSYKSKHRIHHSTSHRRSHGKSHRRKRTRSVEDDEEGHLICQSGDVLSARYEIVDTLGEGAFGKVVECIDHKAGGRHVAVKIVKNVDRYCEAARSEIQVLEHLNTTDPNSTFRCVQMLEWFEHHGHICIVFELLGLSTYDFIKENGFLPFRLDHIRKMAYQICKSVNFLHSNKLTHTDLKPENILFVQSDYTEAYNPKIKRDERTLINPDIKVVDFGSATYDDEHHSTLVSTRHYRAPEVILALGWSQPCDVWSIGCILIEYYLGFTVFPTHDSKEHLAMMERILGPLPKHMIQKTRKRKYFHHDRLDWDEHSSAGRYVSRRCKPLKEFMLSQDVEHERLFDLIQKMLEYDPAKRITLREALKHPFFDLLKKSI
For another test, the target named is LTK (Homo sapiens, UniProt P29376). Kind of test: Kinase assay. As to conditions: average of duplicate measurements. It counts as biochemical.
Chain of LTK (P29376 17-864, species assumed): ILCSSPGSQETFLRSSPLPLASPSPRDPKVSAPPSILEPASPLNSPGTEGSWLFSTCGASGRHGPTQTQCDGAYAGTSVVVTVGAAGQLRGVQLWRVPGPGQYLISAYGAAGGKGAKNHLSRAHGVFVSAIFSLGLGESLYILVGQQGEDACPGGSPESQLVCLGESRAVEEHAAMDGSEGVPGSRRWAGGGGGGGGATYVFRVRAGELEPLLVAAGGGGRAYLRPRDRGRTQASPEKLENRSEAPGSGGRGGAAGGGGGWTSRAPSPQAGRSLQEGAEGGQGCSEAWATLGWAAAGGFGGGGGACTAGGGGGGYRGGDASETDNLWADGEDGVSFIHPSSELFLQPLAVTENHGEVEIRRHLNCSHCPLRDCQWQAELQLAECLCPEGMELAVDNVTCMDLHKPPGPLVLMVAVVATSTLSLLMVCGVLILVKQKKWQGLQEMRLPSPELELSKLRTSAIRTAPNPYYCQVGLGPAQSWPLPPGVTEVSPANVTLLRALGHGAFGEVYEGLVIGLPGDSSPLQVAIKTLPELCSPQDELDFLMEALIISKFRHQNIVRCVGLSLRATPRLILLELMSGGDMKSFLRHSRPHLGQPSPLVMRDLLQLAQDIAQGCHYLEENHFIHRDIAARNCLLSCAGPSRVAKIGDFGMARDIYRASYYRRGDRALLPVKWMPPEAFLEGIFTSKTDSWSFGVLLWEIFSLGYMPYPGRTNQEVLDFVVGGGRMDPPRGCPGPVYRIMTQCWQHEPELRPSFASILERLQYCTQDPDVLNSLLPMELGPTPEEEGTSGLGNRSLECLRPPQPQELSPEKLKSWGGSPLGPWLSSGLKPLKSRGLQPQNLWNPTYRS
In another test the target is C-MET (Homo sapiens, UniProt P08581). Kind of test: Kinase assay. The format is biochemical. The following applies: average of duplicate measurements.
Chain of C-MET (P08581 25-1390): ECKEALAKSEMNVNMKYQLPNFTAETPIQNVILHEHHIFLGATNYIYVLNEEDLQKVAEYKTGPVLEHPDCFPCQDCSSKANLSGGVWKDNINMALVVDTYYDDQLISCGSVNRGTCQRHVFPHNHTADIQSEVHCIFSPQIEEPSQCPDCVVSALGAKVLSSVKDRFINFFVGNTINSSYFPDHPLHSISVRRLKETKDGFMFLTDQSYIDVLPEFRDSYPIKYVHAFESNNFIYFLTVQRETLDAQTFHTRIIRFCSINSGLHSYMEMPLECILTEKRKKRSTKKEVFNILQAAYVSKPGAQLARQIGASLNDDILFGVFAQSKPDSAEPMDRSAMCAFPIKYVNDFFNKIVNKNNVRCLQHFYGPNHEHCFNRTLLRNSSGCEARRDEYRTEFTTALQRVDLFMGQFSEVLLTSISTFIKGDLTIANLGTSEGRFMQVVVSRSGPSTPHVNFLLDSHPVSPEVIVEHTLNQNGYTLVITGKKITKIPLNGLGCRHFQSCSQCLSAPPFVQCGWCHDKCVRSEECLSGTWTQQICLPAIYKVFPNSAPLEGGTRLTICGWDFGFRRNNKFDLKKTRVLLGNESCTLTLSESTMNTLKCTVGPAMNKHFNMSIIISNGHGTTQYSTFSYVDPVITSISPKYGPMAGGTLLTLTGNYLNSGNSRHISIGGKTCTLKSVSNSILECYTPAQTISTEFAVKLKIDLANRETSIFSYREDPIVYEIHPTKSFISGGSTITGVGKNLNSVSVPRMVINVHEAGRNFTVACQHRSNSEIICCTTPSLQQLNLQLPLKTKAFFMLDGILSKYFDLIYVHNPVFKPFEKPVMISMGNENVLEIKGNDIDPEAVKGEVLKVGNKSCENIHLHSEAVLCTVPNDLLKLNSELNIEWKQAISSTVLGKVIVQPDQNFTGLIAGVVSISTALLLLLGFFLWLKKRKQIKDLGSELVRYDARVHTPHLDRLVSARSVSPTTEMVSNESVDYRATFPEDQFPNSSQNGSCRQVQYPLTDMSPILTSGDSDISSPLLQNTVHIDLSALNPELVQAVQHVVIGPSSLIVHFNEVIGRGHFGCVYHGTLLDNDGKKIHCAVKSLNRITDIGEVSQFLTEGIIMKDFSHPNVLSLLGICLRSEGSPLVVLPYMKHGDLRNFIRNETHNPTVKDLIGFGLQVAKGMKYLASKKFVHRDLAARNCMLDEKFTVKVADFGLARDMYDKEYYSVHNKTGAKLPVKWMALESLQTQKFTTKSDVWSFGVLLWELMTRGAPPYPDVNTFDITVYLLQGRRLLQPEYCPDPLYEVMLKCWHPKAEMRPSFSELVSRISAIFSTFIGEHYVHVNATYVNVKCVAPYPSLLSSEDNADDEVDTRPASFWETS

Data on one compound can be found in article PMC11513893, “Discovery of Oral Degraders of the ROS1 Fusion Protein with Potent Activity against Secondary Resistance Mutations” (Journal of Medicinal Chemistry, 2024).

In the case of `COc1cc(N2CCC(N3CCN(CC4CCN(c5ccc6c(c5)CN(C5CCC(=O)NC5=O)C6=O)CC4)CC3)CC2)ccc1Nc1ncc(Cl)c(Nc2ccccc2P(C)(C)=O)n1` (stereo not drawn) [9o, 3-(5-(4-((4-(1-(4-((5-Chloro-4-((2-(dimethylphosphoryl)phenyl)amino)pyrimidin-2-yl)amino)-3-methoxyphenyl)piperidin-4-yl)piperazin-1-yl)methyl)piperidin-1-yl)-1-oxoisoindolin-2-yl)piperidine-2,6-dione], the IC50 with Ba/F3 ROS1 D2033N is 9.6 nM; with Ba/F3 ROS1 G2032R-F2075V, 5.6 nM; with Ba/F3 ROS1 L2026M it was 2.5 nM; at CLK1 it was 35 nM; on LTK, 54 nM; against C-MET, 95 nM.
